Experimental data: publication PMC6343479 (2018)

Assays:
[1] = test system: CTG palindrome d(CTGCTGCAGCAG) (DNA, duplex) CTGCTGCAGCAG; assay: ITC; settings: single binding model; representative curve K = (2.1 ± 0.3) ×10^6 M^-1
[2] = test system: r(CUG)4 (RNA, repeat) CUGCUGCUGCUG; assay: ITC; settings: single binding model; representative curve K = (1.06 ± 0.30) ×10^7 M^-1

Q: For `N=C(N)c1ccc(-c2ccc(-c3ccc(C(=N)N)cc3)o2)cc1`, which KD [1] is on record?
A: Its KD is 485 ± 73 nM.

Q: What about the KD [2] of the same compound?
A: The KD was 99 ± 25 nM.
